Experimental findings from PubChem BioAssay (NCI) are described below.

Where “and” joins values, the source holds several entries; their conditions need not be identical. Equal values may be shown once.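 Test compounds were applied to cells in 96-well plates for 48 hours at 5 doses. Here, GI50 denotes the concentration required for 50% inhibition of growth. TGI marks complete inhibition of growth.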

What all share (assay): inhibition of tumour cell growth, NCI panel, 48 h
The test system of experiment [1] is CAKI-1 renal.
In experiment [2] the test system is SF-295 CNS.
For experiment [3], the system named is MCF7 breast.
Experiment [4] has as its system DU-145 prostate.
Experiment [5] concerns A498 renal.
Experiment [6] concerns 786-0 renal.
For experiment [7], the system named is SN12C renal.
Experiment [8] has as its system HS 578T breast.
Experiment [9] concerns KM12 colon.
For experiment [10], the system named is HCC-2998 colon.

Regarding `O=C1C(Br)=CC2(C=C1Br)CCNc1c(O)c3c4c(c12)=NCCC=4C=N3`, the TGI came to 0.309 µM in experiment [1]; 2.56 µM in experiment [2]; 0.0745 µM in experiment [3]; 1.49 µM in [4]; 3.56 µM in experiment [5]; 0.272 µM in experiment [6]. Also, the TGI in [7] came to 0.344 µM; in [8], 3.87 µM; in experiment [9] it was 1.61 µM; in experiment [10] it was 1.21 µM.

Turning to `COc1cc2c(cc1O)C1CC(CC3CCCCN31)OC(=O)/C=C\c1ccc(O)c-2c1` (stereo not drawn), the TGI in experiment [1] is 66.4 µM; in experiment [2], 29.1 µM; in [3], 53.2 µM; in experiment [4] it was 89.6 µM; in experiment [5], 30.6 µM; in [6] it was above 100 µM. In addition, the TGI is above 100 µM in experiment [7], 57.5 µM in experiment [8], 34.8 µM in [9] and 36 µM in [10].

`COC(=O)C1(C)CCCC2(C)c3cc(OC)ccc3C(=O)C(Br)C12` (stereo not drawn): the TGI is above 10 µM in experiment [1]; above 10 µM in experiment [2]; above 10 µM in experiment [3]; above 10 µM in experiment [4]; above 10 µM in experiment [5]; 4.21 µM in [6]. Also, the TGI in experiment [7], in experiment [8], in experiment [9] and in experiment [10] was above 10 µM each time.

For `COc1cccc(/C=C\c2ccnc3ccccc23)c1`, the TGI in experiment [1], in experiment [2], in experiment [3], in experiment [4], in experiment [5] and in experiment [6] was above 10 µM throughout. Besides, the TGI in experiment [7], in experiment [8], in experiment [9] and in [10] was above 10 µM throughout.

For `N=C1C(c2nc3ccccc3s2)=C(O)CN1c1cc(Cl)cc(Cl)c1`, the GI50 in experiment [1] was above 100 µM; in experiment [2], 89.2 µM; in experiment [3], above 100 µM; in [4] it was above 100 µM; in experiment [5], above 100 µM; in [6], 88.7 µM. Besides, the GI50 in [7] was above 100 µM; in experiment [8], 16.1 µM; in experiment [9] it was above 100 µM; in experiment [10], above 100 µM. Further, the TGI in experiment [1], in [2], in [3], in experiment [4], in experiment [5] and in experiment [6] was above 100 µM each time. Further, the TGI in [7] was above 100 µM; in experiment [8], 64.8 µM; in experiment [9], above 100 µM; in experiment [10] it was above 100 µM.

Take `CCc1ccc([O-])c(C=NCCCN(C)CCCN=Cc2cc(C)ccc2[O-])c1.[Co+3].[N-]=[N+]=[N-]`: the GI50 in [1] is 50 µg/mL and 66.9 µg/mL; in experiment [2] it was 28.1 µg/mL and 16.9 µg/mL; in experiment [3], 50 µg/mL and > 150 µg/mL; in experiment [4] it was 11.6 µg/mL; in experiment [5] it was 50 µg/mL and 79.7 µg/mL; in experiment [6], 43.1 µg/mL. Moreover, the GI50 in [7] is 50 µg/mL and 61.8 µg/mL; in experiment [8], 13.8 µg/mL; in experiment [9], 50 µg/mL and > 150 µg/mL; in experiment [10] it was 50 µg/mL and 123 µg/mL. The TGI in experiment [1] is 50 µg/mL and > 150 µg/mL; in experiment [2], 50 µg/mL and 48.1 µg/mL; in [3], 50 µg/mL and > 150 µg/mL; in experiment [4] it was 50 µg/mL; in experiment [5], 50 µg/mL and 127 µg/mL; in [6] it was 50 µg/mL. Further, the TGI is 50 µg/mL and > 150 µg/mL in experiment [7]; 50 µg/mL in experiment [8]; 50 µg/mL and > 150 µg/mL in experiment [9]; 50 µg/mL and > 150 µg/mL in experiment [10].

`C#Cc1ccc(-n2c(/C=C/c3ccc4ccccc4c3)nc3ncccc3c2=O)cc1`: the GI50 in experiment [1] was 2.98 µM; in experiment [3], 2.43 µM; in [4] it was 7.45 µM; in [5] it was 1.69 µM; in experiment [6] it was 4.08 µM; in [7] it was 3.29 µM. Further, the GI50 was 7.62 µM in experiment [8], 2.95 µM in experiment [9] and 2.32 µM in experiment [10]. The TGI in experiment [1] is above 100 µM; in experiment [3] it was above 100 µM; in experiment [4], above 100 µM; in [5], 5.86 µM; in experiment [6], above 100 µM; in experiment [7], above 100 µM. The TGI in [8] was above 100 µM; in experiment [9], above 100 µM; in experiment [10] it was 5.04 µM.

`Nc1ccc(C(=O)Nc2ccccc2N)cc1`: the TGI in experiment [1], in experiment [2], in experiment [3], in experiment [4], in experiment [5] and in [6] was above 100 µM in each case. The TGI in experiment [7], in experiment [8], in experiment [9] and in [10] was above 100 µM in each case.

As to `COc1ccc(-c2nc3sccn3c2-c2ccnc(NCCCNS(=O)(=O)c3ccc(F)cc3)n2)cc1`, the GI50 in [1] is 2.5 µM; in [2] it was 2.8 µM; in [3] it was 2.48 µM; in [4], 3.02 µM; in [5] it was 2.6 µM; in [6], 5.13 µM. In addition, the GI50 was 2.74 µM in experiment [7], 3.22 µM in experiment [8], 2.57 µM in [9] and 5.11 µM in experiment [10]. The TGI in experiment [1] was 7.29 µM; in experiment [2], 8.55 µM; in experiment [3], 8.66 µM; in [4] it was above 100 µM; in experiment [5] it was above 100 µM; in experiment [6], above 100 µM. Further, the TGI in experiment [7] was above 100 µM; in experiment [8], 9.03 µM; in experiment [9], 9.24 µM; in [10] it was 57.2 µM.
